Test results reported in PubChem BioAssay (NCI).
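Interpolation was linear, between the two tested concentrations surrounding the appropriate level; five concentrations were tested over 48 hours in 96-well plates. GI50 marks 50% less growth. TGI: concentration producing complete growth inhibition.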

Experiments:
Assay in all cases: growth of human tumour cells (NCI), 48 h
M19-MEL melanoma = system: M19-MEL melanoma
DLD-1 colon = system: DLD-1 colon
SW-620 colon = system: SW-620 colon
IGROV1 ovarian = system: IGROV1 ovarian
SK-OV-3 ovarian = system: SK-OV-3 ovarian
SN12C renal = system: SN12C renal
SNB-19 CNS = system: SNB-19 CNS
HCT-15 colon = system: HCT-15 colon
RXF 393 renal = system: RXF 393 renal
OVCAR-4 ovarian = system: OVCAR-4 ovarian
OVCAR-5 ovarian = system: OVCAR-5 ovarian
U251 CNS = system: U251 CNS
SR leukemia = system: SR leukemia
DMS 273 small cell lung = system: DMS 273 small cell lung
KM20L2 colon = system: KM20L2 colon
OVCAR-3 ovarian = system: OVCAR-3 ovarian
SK-MEL-5 melanoma = system: SK-MEL-5 melanoma
KM12 colon = system: KM12 colon
SNB-78 CNS = system: SNB-78 CNS
A549 NSCLC = system: A549 NSCLC
SK-MEL-2 melanoma = system: SK-MEL-2 melanoma
NCI-H23 lung = system: NCI-H23 lung
SNB-75 CNS = system: SNB-75 CNS
COLO 205 colon = system: COLO 205 colon
EKVX NSCLC = system: EKVX NSCLC
HOP-18 NSCLC = system: HOP-18 NSCLC
LOX IMVI melanoma = system: LOX IMVI melanoma
CAKI-1 renal = system: CAKI-1 renal
UACC-257 melanoma = system: UACC-257 melanoma
NCI-H460 lung = system: NCI-H460 lung
SF-539 CNS = system: SF-539 CNS
SK-MEL-28 melanoma = system: SK-MEL-28 melanoma
MALME-3M melanoma = system: MALME-3M melanoma
OVCAR-8 ovarian = system: OVCAR-8 ovarian
UO-31 renal = system: UO-31 renal
XF 498 CNS = system: XF 498 CNS
TK-10 renal = system: TK-10 renal
M14 melanoma = system: M14 melanoma
SF-295 CNS = system: SF-295 CNS
UACC-62 melanoma = system: UACC-62 melanoma
NCI-H226 lung = system: NCI-H226 lung
HCT-116 colon = system: HCT-116 colon
HT29 colon = system: HT29 colon
HCC-2998 colon = system: HCC-2998 colon

`c1cncc([O][Ge]([O]c2cccnc2)([O]c2cccnc2)[O]c2cccnc2)c1` was tested, and the GI50 (M19-MEL melanoma) was over 100 µM, the TGI (M19-MEL melanoma) was over 100 µM and the GI50 (DLD-1 colon) was over 100 µM. It also gave a TGI (DLD-1 colon) of over 100 µM, a GI50 (SW-620 colon) of over 100 µM and a TGI (SW-620 colon) of over 100 µM. For the same compound, the GI50 (IGROV1 ovarian) was over 100 µM, the TGI (IGROV1 ovarian) was over 100 µM and the GI50 (SK-OV-3 ovarian) was over 100 µM. For the same compound, the TGI (SK-OV-3 ovarian) was over 100 µM, the GI50 (SN12C renal) was over 100 µM and the TGI (SN12C renal) was over 100 µM. It also gave a GI50 (SNB-19 CNS) of over 100 µM, a TGI (SNB-19 CNS) of over 100 µM and a GI50 (HCT-15 colon) of over 100 µM. It also gave a TGI (HCT-15 colon) of over 100 µM, a GI50 (RXF 393 renal) of over 100 µM and a TGI (RXF 393 renal) of over 100 µM. For the same compound, the GI50 (OVCAR-4 ovarian) was over 100 µM, the TGI (OVCAR-4 ovarian) was over 100 µM and the GI50 (OVCAR-5 ovarian) was over 100 µM. For the same compound, the TGI (OVCAR-5 ovarian) was over 100 µM, the GI50 (U251 CNS) was over 100 µM and the TGI (U251 CNS) was over 100 µM. It also gave a GI50 (SR leukemia) of over 100 µM, a TGI (SR leukemia) of over 100 µM and a GI50 (DMS 273 small cell lung) of over 100 µM. The TGI (DMS 273 small cell lung) was over 100 µM, the GI50 (KM20L2 colon) was over 100 µM and the TGI (KM20L2 colon) was over 100 µM. For the same compound, the GI50 (OVCAR-3 ovarian) was over 100 µM, the TGI (OVCAR-3 ovarian) was over 100 µM and the GI50 (SK-MEL-5 melanoma) was over 100 µM. It also gave a TGI (SK-MEL-5 melanoma) of over 100 µM, a GI50 (KM12 colon) of over 100 µM and a TGI (KM12 colon) of over 100 µM. It also gave a GI50 (SNB-78 CNS) of over 100 µM, a TGI (SNB-78 CNS) of over 100 µM and a GI50 (A549 NSCLC) of over 100 µM. The TGI (A549 NSCLC) was over 100 µM, the GI50 (SK-MEL-2 melanoma) was over 100 µM and the TGI (SK-MEL-2 melanoma) was over 100 µM. The GI50 (NCI-H23 lung) was over 100 µM, the TGI (NCI-H23 lung) was over 100 µM and the GI50 (SNB-75 CNS) was over 100 µM. For the same compound, the TGI (SNB-75 CNS) was over 100 µM, the GI50 (COLO 205 colon) was over 100 µM and the TGI (COLO 205 colon) was over 100 µM. The GI50 (EKVX NSCLC) was over 100 µM, the TGI (EKVX NSCLC) was over 100 µM and the GI50 (HOP-18 NSCLC) was over 100 µM. The TGI (HOP-18 NSCLC) was over 100 µM, the GI50 (LOX IMVI melanoma) was 47.1 µM and the TGI (LOX IMVI melanoma) was over 100 µM. The GI50 (CAKI-1 renal) was over 100 µM, the TGI (CAKI-1 renal) was over 100 µM and the GI50 (UACC-257 melanoma) was over 100 µM. It also gave a TGI (UACC-257 melanoma) of over 100 µM, a GI50 (NCI-H460 lung) of over 100 µM and a TGI (NCI-H460 lung) of over 100 µM. For the same compound, the GI50 (SF-539 CNS) was over 100 µM, the TGI (SF-539 CNS) was over 100 µM and the GI50 (SK-MEL-28 melanoma) was over 100 µM. For the same compound, the TGI (SK-MEL-28 melanoma) was over 100 µM, the GI50 (MALME-3M melanoma) was over 100 µM and the TGI (MALME-3M melanoma) was over 100 µM. It also gave a GI50 (OVCAR-8 ovarian) of over 100 µM, a TGI (OVCAR-8 ovarian) of over 100 µM and a GI50 (UO-31 renal) of over 100 µM. The TGI (UO-31 renal) was over 100 µM, the GI50 (XF 498 CNS) was over 100 µM and the TGI (XF 498 CNS) was over 100 µM. For the same compound, the GI50 (TK-10 renal) was over 100 µM, the TGI (TK-10 renal) was over 100 µM and the GI50 (M14 melanoma) was over 100 µM. It also gave a TGI (M14 melanoma) of over 100 µM, a GI50 (SF-295 CNS) of over 100 µM and a TGI (SF-295 CNS) of over 100 µM. For the same compound, the GI50 (UACC-62 melanoma) was over 100 µM, the TGI (UACC-62 melanoma) was over 100 µM and the GI50 (NCI-H226 lung) was over 100 µM. The TGI (NCI-H226 lung) was over 100 µM, the GI50 (HCT-116 colon) was over 100 µM and the TGI (HCT-116 colon) was over 100 µM. It also gave a GI50 (HT29 colon) of over 100 µM, a TGI (HT29 colon) of over 100 µM and a GI50 (HCC-2998 colon) of over 100 µM. It also gave a TGI (HCC-2998 colon) of over 100 µM.
